# Starred links: 1 amine or outer side, 2 acyl side, 3 side chain; linkers in the order of their positions; H or OH if unused. Positions of bridges follow the written chain, without caps; N, C: chain ends. Residues, ends and D or L forms follow the SMILES beside them. *: point of attachment. C20 diacid = O=C(O)CCCCCCCCCCCCCCCCCCC(=O)*; C18 diacid = O=C(O)CCCCCCCCCCCCCCCCC(=O)*; γGlu = O=C(O)[C@H](CCC(=O)[*:2])N[*:1]
# Experiment: Assay (III) ThT fibrillation assay for physical stability
# Format: physicochemical
# Conditions: pH 4.0
# Text: Assay (III)—ThT Fibrillation Assays for the Assessment of Physical Stability of Protein formulations Low physical stability of a polypeptide may lead to amyloid fibril formation, which is observed as well-ordered, thread-like macromolecular structures in the sample eventually resulting in gel formation. This has traditionally been measured by visual inspection of the sample. However, that kind of measurement is very subjective and depending on the observer. Therefore, the application of a small molecule indicator probe is much more advantageous. Thioflavin T (ThT) is such a probe and has a distinct fluorescence signature when binding to fibrils [Naiki et al. (1989) Anal. Biochem. 177, 244-249; LeVine (1999) Methods. Enzymol. […], 274-284]. The time course for fibril formation can be described by a sigmoidal curve with the following expression [Nielsen et al. (2001) Biochemistry 40, 6036-6046]: [formula] Here, F is the ThT fluorescence at the time t. The constant t0 is the time needed to reach 50% of maximum fluorescence. […] Few of those intermediates nucleate to form a template onto which further intermediates may assembly and the fibrillation proceeds. The lag-time corresponds to the interval in which the critical mass of nucleus is built up and the apparent rate constant is the rate with which the fibril itself is formed. Sample Preparation Samples were prepared freshly before each assay. Each sample composition is described in each example. The pH of the sample was adjusted to the desired value using appropriate amounts of concentrated NaOH and HClO4 or HCl. Thioflavin T was added to the samples from a stock solution in H2O to a final concentration of 1 μM. Sample aliquots of 200 μl were placed in a 96 well microtiter plate (Packard OptiPlate™-96, white polystyrene). Usually, four or eight replica of each sample (corresponding to one test condition) were placed in one column of wells. The plate was sealed with Scotch Pad (Qiagen). Incubation and Fluorescence Measurement Incubation at given temperature, shaking and measurement of the ThT fluorescence emission were done in a Fluoroskan Ascent FL fluorescence platereader or Varioskan platereader (Thermo Labsystems). The temperature was adjusted to 37° C. The orbital shaking was adjusted to 960 rpm with an amplitude of 1 mm in all the presented data. Fluorescence measurement was done using excitation through a 444 nm filter and measurement of emission through a 485 nm filter. Each run was initiated by incubating the plate at the assay temperature for 10 min. The plate was measured every 20 minutes for a desired period of time. Between each measurement, the plate was shaken and heated as described. Data Handling The measurement points were saved in Microsoft Excel format for further processing and curve drawing and fitting was performed using GraphPad Prism. The background emission from ThT in the absence of fibrils was negligible. The data points are typically a mean of four or eight samples and shown with standard deviation error bars. Only data obtained in the same experiment (i.e. samples on the same plate) are presented in the same graph ensuring a relative measure of fibrillation between experiments. The data set may be fitted to Eq. (1). However, since full sigmodial curves in this case are not always achieved during the measurement time, the degree of fibrillation is expressed as ThT fluorescence tabulated as the mean of the samples and shown with the standard deviation at various time points. Measurement of Initial and Final Concentrations The polypeptide concentration in each of the tested formulations were measured both before application in the ThT fibrillation assay (“Initial”) and after completion of the ThT fibrillation (“After ThT assay”). Concentrations were determined by reverse HPLC methods using a pramlintide standard as a reference. Before measurement after completion 150 μl was collected from each of the replica and transferred to an Eppendorf tube. […]
row,ThT pH 4.0 lag time (physical stability in fibrillogenesis assay),Structure (SMILES)
1,>45 h,"CC[C@H](C)[C@H](NC(=O)[C@@H]1CCCN1C(=O)CNC(=O)[C@H](Cc1ccccc1)NC(=O)[C@H](CC(N)=O)NC(=O)[C@H](CC(N)=O)NC(=O)[C@H](CO)NC(=O)[C@H](CO)NC(=O)[C@H](Cc1c[nH]cn1)NC(=O)[C@H](CCCNC(=N)N)NC(=O)[C@H](CC(C)C)NC(=O)[C@H](Cc1ccccc1)NC(=O)[C@H](CCC(=O)O)NC(=O)[C@H](C)NC(=O)[C@H](CC(C)C)NC(=O)[C@H](CCCNC(=N)N)NC(=O)[C@H](CCC(N)=O)NC(=O)[C@@H](NC(=O)[C@H](C)NC(=O)[C@@H]1CSSC[C@H](NC(=O)[C@H](CCCCN)NC(=O)CC[C@H](NC(=O)CCCCCCCCCCCCCCCCCCC(=O)O)C(=O)O)C(=O)N[C@@H](CC(N)=O)C(=O)N[C@@H]([C@@H](C)O)C(=O)N[C@@H](C)C(=O)N[C@@H]([C@@H](C)O)C(=O)N1)[C@@H](C)O)C(=O)N[C@@H](CC(C)C)C(=O)N1CCC[C@H]1C(=O)N1CCC[C@H]1C(=O)N[C@H](C(=O)N[C@@H](CC(N)=O)C(=O)N[C@H](C(=O)NCC(=O)N[C@@H](CO)C(=O)N[C@@H](Cc1cnc[nH]1)C(=O)N[C@H](C(=O)N[C@@H](Cc1ccc(O)cc1)C(N)=O)[C@@H](C)O)C(C)C)[C@@H](C)O [Example 57, N-alpha-[(S)-4-Carboxy-4-(19-carboxynonadecanoylamino)butyryl]-[Glu14,Arg17,His35]-pramlintide] ({C20 diacid-γGlu}-KCNTATCATQRLAEFLRHSSNNFGPILPPTNVGSHTY-NH2; disulfide 2-7)"
2,>45 h,"CC[C@H](C)[C@H](NC(=O)[C@@H]1CCCN1C(=O)CNC(=O)[C@H](Cc1ccccc1)NC(=O)[C@H](CC(N)=O)NC(=O)[C@H](CC(N)=O)NC(=O)[C@H](CO)NC(=O)[C@H](CO)NC(=O)[C@H](Cc1c[nH]cn1)NC(=O)[C@H](CCCNC(=N)N)NC(=O)[C@H](CC(C)C)NC(=O)[C@H](Cc1ccccc1)NC(=O)[C@H](CCC(=O)O)NC(=O)[C@H](C)NC(=O)[C@H](CC(C)C)NC(=O)[C@H](CCCNC(=N)N)NC(=O)[C@H](CCC(N)=O)NC(=O)[C@@H](NC(=O)[C@H](C)NC(=O)[C@@H]1CSSC[C@H](NC(=O)[C@H](CCCCN)NC(=O)[C@H](CCC(=O)O)NC(=O)CC[C@H](NC(=O)CCCCCCCCCCCCCCCCCCC(=O)O)C(=O)O)C(=O)N[C@@H](CC(N)=O)C(=O)N[C@@H]([C@@H](C)O)C(=O)N[C@@H](C)C(=O)N[C@@H]([C@@H](C)O)C(=O)N1)[C@@H](C)O)C(=O)N[C@@H](CC(C)C)C(=O)N1CCC[C@H]1C(=O)N1CCC[C@H]1C(=O)N[C@H](C(=O)N[C@@H](CC(N)=O)C(=O)N[C@H](C(=O)NCC(=O)N[C@@H](CO)C(=O)N[C@@H](Cc1c[nH]cn1)C(=O)N[C@H](C(=O)N[C@@H](Cc1ccc(O)cc1)C(N)=O)[C@@H](C)O)C(C)C)[C@@H](C)O [Example 58, N-alpha-[(S)-4-Carboxy-4-(19-carboxynonadecanoylamino)butyryl]-Glu-[Glu14,Arg17,His35]-pramlintide] ({C20 diacid-γGlu}-EKCNTATCATQRLAEFLRHSSNNFGPILPPTNVGSHTY-NH2; disulfide 3-8 (inferred); C-terminus assumed)"

# Same assay, conditions: pH 4.0, ThT fibrillation assay
row,ThT pH 4.0 lag time,Structure (SMILES)
1,>45 h,"CC[C@H](C)[C@H](NC(=O)[C@@H]1CCCN1C(=O)CNC(=O)[C@H](Cc1ccccc1)NC(=O)[C@H](CC(N)=O)NC(=O)[C@H](CC(N)=O)NC(=O)[C@H](CO)NC(=O)[C@H](CO)NC(=O)[C@H](Cc1c[nH]cn1)NC(=O)[C@H](CCCNC(=N)N)NC(=O)[C@H](CC(C)C)NC(=O)[C@H](Cc1ccccc1)NC(=O)[C@H](CCC(=O)O)NC(=O)[C@H](C)NC(=O)[C@H](CC(C)C)NC(=O)[C@H](CCCNC(=N)N)NC(=O)[C@H](CCC(N)=O)NC(=O)[C@@H](NC(=O)[C@H](C)NC(=O)[C@@H]1CSSC[C@H](NC(=O)[C@H](CCCCN)NC(=O)[C@H](CCC(=O)O)NC(=O)CC[C@H](NC(=O)CCCCCCCCCCCCCCCCCCC(=O)O)C(=O)O)C(=O)N[C@@H](CC(N)=O)C(=O)N[C@@H]([C@@H](C)O)C(=O)N[C@@H](C)C(=O)N[C@@H]([C@@H](C)O)C(=O)N1)[C@@H](C)O)C(=O)N[C@@H](CC(C)C)C(=O)N1CCC[C@H]1C(=O)N1CCC[C@H]1C(=O)N[C@H](C(=O)N[C@@H](CC(N)=O)C(=O)N[C@H](C(=O)NCC(=O)N[C@@H](CO)C(=O)N[C@@H](Cc1c[nH]cn1)C(=O)N[C@H](C(=O)N[C@@H](Cc1ccc(O)cc1)C(N)=O)[C@@H](C)O)C(C)C)[C@@H](C)O [Example 58, N-alpha-[(S)-4-Carboxy-4-(19-carboxynonadecanoylamino)butyryl]-Glu-[Glu14,Arg17,His35]-pramlintide] ({C20 diacid-γGlu}-EKCNTATCATQRLAEFLRHSSNNFGPILPPTNVGSHTY-NH2; disulfide 3-8 (inferred); C-terminus assumed)"
2,>45 h,"CC[C@H](C)[C@H](NC(=O)[C@@H]1CCCN1C(=O)CNC(=O)[C@H](Cc1ccccc1)NC(=O)[C@H](CC(N)=O)NC(=O)[C@H](CC(N)=O)NC(=O)[C@H](CO)NC(=O)[C@H](CO)NC(=O)[C@H](Cc1c[nH]cn1)NC(=O)[C@H](CCCNC(=N)N)NC(=O)[C@H](CC(C)C)NC(=O)[C@H](Cc1ccccc1)NC(=O)[C@H](CCC(=O)O)NC(=O)[C@H](C)NC(=O)[C@H](CC(C)C)NC(=O)[C@H](CCCNC(=N)N)NC(=O)[C@H](CCC(N)=O)NC(=O)[C@@H](NC(=O)[C@H](C)NC(=O)[C@@H]1CSSC[C@H](NC(=O)[C@H](CCCCN)NC(=O)CC[C@H](NC(=O)CCCCCCCCCCCCCCCCC(=O)O)C(=O)O)C(=O)N[C@@H](CC(N)=O)C(=O)N[C@@H]([C@@H](C)O)C(=O)N[C@@H](C)C(=O)N[C@@H]([C@@H](C)O)C(=O)N1)[C@@H](C)O)C(=O)N[C@@H](CC(C)C)C(=O)N1CCC[C@H]1C(=O)N1CCC[C@H]1C(=O)N[C@H](C(=O)N[C@@H](CC(N)=O)C(=O)N[C@H](C(=O)NCC(=O)N[C@@H](CO)C(=O)N[C@@H](Cc1c[nH]cn1)C(=O)N[C@H](C(=O)N[C@@H](Cc1ccc(O)cc1)C(N)=O)[C@@H](C)O)C(C)C)[C@@H](C)O [Example 61, N-alpha-[(S)-4-Carboxy-4-(17-carboxyheptadecanoylamino)butyryl]-[Glu14,Arg17,His35]-pramlintide] ({C18 diacid-γGlu}-KCNTATCATQRLAEFLRHSSNNFGPILPPTNVGSHTY-NH2; disulfide 2-7)"
3,30 h,"CC[C@H](C)[C@H](NC(=O)[C@@H]1CCCN1C(=O)CNC(=O)[C@H](Cc1ccccc1)NC(=O)[C@H](CC(N)=O)NC(=O)[C@H](CC(N)=O)NC(=O)[C@H](CO)NC(=O)[C@H](CO)NC(=O)[C@H](Cc1c[nH]cn1)NC(=O)[C@H](CCCNC(=N)N)NC(=O)[C@H](CC(C)C)NC(=O)[C@H](Cc1ccccc1)NC(=O)[C@H](CCC(=O)O)NC(=O)[C@H](C)NC(=O)[C@H](CC(C)C)NC(=O)[C@H](CCCNC(=N)N)NC(=O)[C@H](CCC(N)=O)NC(=O)[C@@H](NC(=O)[C@H](C)NC(=O)[C@@H]1CSSC[C@H](NC(=O)[C@H](CCCCN)NC(=O)[C@H](CCC(=O)O)NC(=O)CC[C@H](NC(=O)CCCCCCCCCCCCCCCCC(=O)O)C(=O)O)C(=O)N[C@@H](CC(N)=O)C(=O)N[C@@H]([C@@H](C)O)C(=O)N[C@@H](C)C(=O)N[C@@H]([C@@H](C)O)C(=O)N1)[C@@H](C)O)C(=O)N[C@@H](CC(C)C)C(=O)N1CCC[C@H]1C(=O)N1CCC[C@H]1C(=O)N[C@H](C(=O)N[C@@H](CC(N)=O)C(=O)N[C@H](C(=O)NCC(=O)N[C@@H](CO)C(=O)N[C@@H](Cc1c[nH]cn1)C(=O)N[C@H](C(=O)N[C@@H](Cc1ccc(O)cc1)C(N)=O)[C@@H](C)O)C(C)C)[C@@H](C)O [Example 62, N-alpha-[(S)-4-Carboxy-4-(17-carboxyheptadecanoylamino)butyryl]-Glu-[Glu14,Arg17,His35]-pramlintide] ({C18 diacid-γGlu}-EKCNTATCATQRLAEFLRHSSNNFGPILPPTNVGSHTY-NH2; disulfide 3-8 (inferred); C-terminus assumed)"
4,>45 h,"CC(C)C[C@H](NC(=O)[C@H](CCCNC(=N)N)NC(=O)[C@H](CCC(N)=O)NC(=O)[C@@H](NC(=O)[C@H](C)NC(=O)[C@@H]1CSSC[C@H](NC(=O)[C@H](CCCCN)NC(=O)CC[C@H](NC(=O)CCCCCCCCCCCCCCCCCCC(=O)O)C(=O)O)C(=O)N[C@@H](CC(N)=O)C(=O)N[C@@H]([C@@H](C)O)C(=O)N[C@@H](C)C(=O)N[C@@H]([C@@H](C)O)C(=O)N1)[C@@H](C)O)C(=O)N[C@@H](C)C(=O)N[C@@H](CCC(=O)O)C(=O)N[C@@H](Cc1ccccc1)C(=O)N[C@@H](CC(C)C)C(=O)N[C@@H](CCCNC(=N)N)C(=O)N[C@@H](Cc1c[nH]cn1)C(=O)N[C@@H](CO)C(=O)N[C@@H](CO)C(=O)N[C@@H](CC(N)=O)C(=O)N[C@@H](CC(N)=O)C(=O)N[C@@H](Cc1ccccc1)C(=O)NCC(=O)N[C@@H](C)C(=O)N1CCC[C@H]1C(=O)N[C@@H](CC(C)C)C(=O)N[C@@H](CO)C(=O)N[C@@H](CO)C(=O)N[C@H](C(=O)N[C@@H](CC(N)=O)C(=O)N[C@H](C(=O)NCC(=O)N[C@@H](CO)C(=O)N[C@@H](Cc1c[nH]cn1)C(=O)N[C@H](C(=O)N[C@@H](Cc1ccc(O)cc1)C(N)=O)[C@@H](C)O)C(C)C)[C@@H](C)O [Example 65, N-alpha-[(S)-4-Carboxy-4-(19-carboxynonadecanoylamino)butyryl]-[Glu14,Arg17,Ala25,Pro26,Ser28,Ser29,His35]-pramlintide] ({C20 diacid-γGlu}-KCNTATCATQRLAEFLRHSSNNFGAPLSSTNVGSHTY-NH2; disulfide 2-7)"
